Laboratory results from US20140135270A1, “MACROCYCLIC COMPOUNDS FOR INHIBITION OF INHIBITORS OF APOPTOSIS” (Ensemble Therapeutics Corp., priority 2012, published 2014).

Columns and labels:
His-BIR3 (241-356, XIAP) = target: T1, His-BIR3 (241-356, XIAP) (Homo sapiens, UniProt P98170); assay: XIAP-BIR3/SMAC Homogeneous Time Resolved Fluorescence (HTRF) Assay; format: binding; conditions: fluorescein labeled SMAC peptide
T1 construct: additions of His-BIR3 (241-356, XIAP), fluorescein labeled SMAC peptide

[1] = target: T2, His-BIR2-3 (125-356, C202A/C213G, XIAP) (Homo sapiens, UniProt P98170, C202A/C213G); assay: XIAP-BIR2-3 Dimeric SMAC Peptide Homogeneous Time Resolved Fluorescence (HTRF) Assay; format: binding; conditions: fluorescein labeled dimeric SMAC peptide
T2 construct: additions of His-BIR2-3 (125-356, C202A/C213G, XIAP), fluorescein labeled dimeric SMAC peptide
T2 sequence (P98170 125-356 C202A/C213G): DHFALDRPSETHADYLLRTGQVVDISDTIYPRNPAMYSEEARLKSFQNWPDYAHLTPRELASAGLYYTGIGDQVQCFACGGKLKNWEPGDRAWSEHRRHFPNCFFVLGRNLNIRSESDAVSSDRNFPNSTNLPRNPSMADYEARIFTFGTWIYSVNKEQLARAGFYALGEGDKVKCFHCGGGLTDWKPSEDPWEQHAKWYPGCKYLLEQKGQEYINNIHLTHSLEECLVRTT

T1 sequence (P98170 241-356): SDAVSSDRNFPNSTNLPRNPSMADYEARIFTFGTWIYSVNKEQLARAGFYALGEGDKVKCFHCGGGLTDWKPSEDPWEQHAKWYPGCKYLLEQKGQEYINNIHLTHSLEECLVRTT

Row | Compound | IC50 (His-BIR3 (241-356, XIAP)) [nM] | IC50 [1] [nM]
1 | CNC(C)C(=O)NC(C(=O)N1CC2CCCCOc3ccc(cc3)CC(C(=O)NS(=O)(=O)CCCNC(C)=O)NC(=O)C(Cc3ccc4ccccc4c3)NC(=O)C3CC(CN3C(=O)C(NC(=O)C(C)NC)C(C)(C)C)n3cc(nn3)COc3ccc(cc3)CC(C(=O)O)NC(=O)C(Cc3ccc4ccccc4c3)NC(=O)C1C2)C(C)(C)C (stereo not drawn) [Example 27] | 3.5 | 2.7
2 | CN[C@@H](C)C(=O)N[C@H](C(=O)N1C[C@H]2C/C=C/COc3ccc(cc3)C[C@@H](C(=O)O)NC(=O)[C@H]([C@H](C)c3ccc4ccccc4c3)NC(=O)[C@@H]3C[C@@H](CN3C(=O)[C@@H](NC(=O)[C@H](C)NC)C(C)(C)C)n3cc(nn3)COc3ccc(cc3)C[C@@H](C(=O)NS(=O)(=O)C3CC3)NC(=O)[C@H](Cc3ccc4ccccc4c3)NC(=O)[C@@H]1C2)C(C)(C)C [Example 98] | 4.4 | 2.2
3 | CN[C@@H](C)C(=O)N[C@H](C(=O)N1C[C@@H]2C[C@H]1C(=O)N[C@@H](Cc1ccc3ccccc3c1)C(=O)N[C@H](C(=O)NS(=O)(=O)C1CC1)Cc1ccc(cc1)OCc1cn(nn1)[C@H]1C[C@@H](C(=O)N[C@@H](Cc3ccc4ccccc4c3)C(=O)N[C@H](C(=O)O)Cc3ccc(cc3)OC/C=C/CO2)N(C(=O)[C@@H](NC(=O)[C@H](C)NC)C(C)(C)C)C1)C1CCOCC1 [Example 109] | 44.3 | 4.4
4 | CN[C@@H](C)C(=O)N[C@H](C(=O)N[C@H]1C/C=C/COc2ccc(cc2)C[C@H](C(=O)O)NC(=O)[C@H](Cc2ccc3ccccc3c2)NC(=O)[C@@H]2[C@@H](CCN2C(=O)[C@@H](NC(=O)[C@H](C)NC)C(C)(C)C)OCc2cn(nn2)CC[C@@H](C(=O)OC)NC(=O)[C@H](Cc2ccc3ccccc3c2)NC1=O)C(C)(C)C [Example 21] | 1.8 | 2.6
5 | CN[C@@H](C)C(=O)N[C@H](C(=O)N1C[C@@H]2C[C@H]1C(=O)N[C@@H](Cc1ccc3ccccc3c1)C(=O)N[C@H](C(=O)O)Cc1ccc(cc1)OC/C=C/C[C@H]1C[C@@H](C(=O)N[C@@H](Cc3ccc4ccccc4c3)C(=O)N[C@H](C(=O)NS(=O)(=O)C3CC3)Cc3ccc(cc3)OCc3cn2nn3)N(C(=O)[C@@H](NC(=O)[C@H](C)NC)C(C)(C)C)C1)C(C)(C)C [Example 86] | 1.7 | 1.1
6 | CN[C@@H](C)C(=O)N[C@H](C(=O)N1C[C@H]2C/C=C/COc3ccc(cc3)C[C@@H](C(=O)NS(=O)(=O)C3CCCCC3)NC(=O)[C@H](Cc3ccc4ccccc4c3)NC(=O)[C@@H]3C[C@@H](CN3C(=O)[C@@H](NC(=O)[C@H](C)NC)C(C)(C)C)n3cc(nn3)COc3ccc(cc3)C[C@@H](C(=O)O)NC(=O)[C@H](Cc3ccc4ccccc4c3)NC(=O)[C@@H]1C2)C(C)(C)C [Example 24] | 0.7 | 0.2
7 | CN[C@@H](C)C(=O)N[C@H](C(=O)N1C[C@@H]2C[C@H]1C(=O)N[C@@H](Cc1ccc3ccccc3c1)C(=O)N[C@H](C(=O)NS(=O)(=O)C1CC1)Cc1ccc(cc1)OCc1cn(nn1)[C@H]1C[C@@H](C(=O)N[C@@H](Cc3ccc4ccccc4c3)C(=O)N[C@H](C(=O)O)Cc3ccc(cc3)OC/C=C/CO2)N(C(=O)[C@@H](NC(=O)[C@H](C)NC)C(C)(C)C)C1)C1CCNCC1 [Example 110] | 10 | 1.5
8 | CN[C@@H](C)C(=O)N[C@H](C(=O)N1C[C@@H]2C[C@H]1C(=O)N[C@@H](Cc1ccc3ccccc3c1)C(=O)N[C@H](C(=O)O)Cc1ccc(cc1)OCc1cn(nn1)[C@H]1C[C@@H](C(=O)N[C@@H](Cc3ccc4ccccc4c3)C(=O)N[C@H](C(=O)NS(=O)(=O)C3CC3)Cc3ccc(cc3)OCCCCO2)N(C(=O)[C@@H](NC(=O)[C@H](C)NC)C(C)(C)C)C1)C(C)(C)C [Example 123] | 7.8 | 5.4
9 | CN[C@@H](C)C(=O)N[C@H](C(=O)N1C[C@H]2C/C=C/COc3ccc(cc3)C[C@@H](C(=O)NS(=O)(=O)C3CC3)NC(=O)[C@H](Cc3ccc4ccccc4c3)NC(=O)[C@@H]3C[C@H](C/C=C/COc4ccc(cc4)C[C@@H](C(=O)O)NC(=O)[C@H](Cc4ccc5ccccc5c4)NC(=O)[C@@H]1C2)CN3C(=O)[C@@H](NC(=O)[C@H](C)NC)C(C)(C)C)C(C)(C)C [Example 88] | 3.9 | 1.7
10 | CN[C@@H](C)C(=O)N[C@H](C(=O)N[C@H]1C/C=C/CC[C@@H](C(=O)O)NC(=O)[C@H](Cc2ccc3ccccc3c2)NC(=O)[C@@H]2[C@@H](CCN2C(=O)[C@@H](NC(=O)[C@H](C)NC)C(C)(C)C)OCc2cn(nn2)CC[C@@H](C(=O)OC)NC(=O)[C@H](Cc2ccc3ccccc3c2)NC1=O)C(C)(C)C [Example 20] | 4.8 | 7.3
11 | CN[C@@H](C)C(=O)N[C@H](C(=O)N1CC[C@@H]2OC/C=C/COc3ccc(cc3)C[C@@H](C(=O)O)NC(=O)[C@H](Cc3ccc4ccccc4c3)NC(=O)[C@@H]3[C@H](CCN3C(=O)[C@@H](NC(=O)[C@H](C)NC)C(C)(C)C)OCc3cn(nn3)[C@H](C(=O)NS(C)(=O)=O)CCCNC(=O)[C@H](Cc3ccc4ccccc4c3)NC(=O)[C@H]21)C(C)(C)C [Example 18] | 5.8 | 1.8
12 | CN[C@@H](C)C(=O)N[C@H](C(=O)N1C[C@@H]2C[C@H]1C(=O)N[C@@H](Cc1ccc3ccccc3c1)C(=O)N[C@H](C(=O)O)Cc1ccc(cc1)C(=O)N[C@H]1C[C@@H](C(=O)N[C@@H](Cc3ccc4ccccc4c3)C(=O)N[C@H](C(=O)O)Cc3ccc(cc3)OC/C=C/CO2)N(C(=O)[C@@H](NC(=O)[C@H](C)NC)C(C)(C)C)C1)C1CCOCC1 [Example 66] | 5.2 | 1.3
13 | CN[C@@H](C)C(=O)N[C@H](C(=O)N1C[C@@H]2C[C@H]1C(=O)N[C@@H](Cc1ccc3ccccc3c1)C(=O)N[C@H](C(=O)O)Cc1ccc(cc1)OCc1cn(nn1)[C@H]1C[C@@H](C(=O)N[C@@H](Cc3ccc4ccccc4c3)C(=O)N[C@H](C(=O)O)Cc3ccc(cc3)OCCCCO2)N(C(=O)[C@@H](NC(=O)[C@H](C)NC)C(C)(C)C)C1)C(C)(C)C [Example 121] | 11.6 | 7.9
14 | CN[C@@H](C)C(=O)NC(C(=O)N1C[C@@H]2C[C@H]1C(=O)N[C@@H](Cc1ccc3ccccc3c1)C(=O)N[C@H](C(=O)O)Cc1ccc(cc1)OC/C=C/C(=O)N1CCN(C(=O)[C@@H](NC(=O)[C@H](C)NC)C(C)(C)C)[C@@H](C1)C(=O)N[C@@H](Cc1ccc3ccccc3c1)C(=O)N[C@H](C(=O)O)CCC(=O)N2)C(C)(C)C (stereo partly drawn) [Example 79] | 44.3 | 5.6

The next lines start with the values.

Row | IC50 (His-BIR3 (241-356, XIAP)) [nM] | IC50 [1] [nM] | Compound
15 | 9.7 | 1.7 | CN[C@@H](C)C(=O)N[C@H](C(=O)N1C[C@@H]2C[C@H]1C(=O)N[C@@H](Cc1ccc3ccccc3c1)C(=O)N[C@H](C(=O)O)Cc1ccc(cc1)C(=O)N[C@H]1C[C@@H](C(=O)N[C@@H](Cc3ccc4ccccc4c3)C(=O)N[C@H](C(=O)O)Cc3ccc(cc3)OC/C=C/CO2)N(C(=O)[C@@H](NC(=O)[C@H](C)NC)C(C)(C)C)C1)C(C)C [Example 75]
16 | 47.4 | 2.5 | CN[C@@H](C)C(=O)N[C@H](C(=O)N1C[C@@H]2C[C@H]1C(=O)N[C@@H](Cc1ccc3ccccc3c1)C(=O)N[C@H](C(=O)O)Cc1ccc(cc1)OC/C=C/CO[C@H]1C[C@@H](C(=O)N[C@@H](c3ccccc3)C(=O)N[C@H](C(=O)O)Cc3ccc(cc3)C(=O)N2)N(C(=O)[C@@H](NC(=O)[C@H](C)NC)C(C)(C)C)C1)C(C)(C)C [Example 53]
17 | 15.5 | 2.7 | CN[C@@H](C)C(=O)N[C@H](C(=O)N1C[C@@H]2C[C@H]1C(=O)N[C@@H](Cc1ccc3ccccc3c1)C(=O)N[C@H](C(=O)O)Cc1ccc(cc1)C(=O)N[C@H]1C[C@@H](C(=O)N[C@@H](Cc3ccc4ccccc4c3)C(=O)N[C@H](C(=O)O)Cc3ccc(cc3)OC/C=C/CO2)N(C(=O)[C@@H](NC(=O)[C@H](C)NC)C(C)(C)C)C1)C(C)C [Example 68]
18 | 41.8 | 6.3 | CC[C@H](NC(=O)[C@H](C)NC)C(=O)N1C[C@@H]2C[C@H]1C(=O)N[C@@H](Cc1c[nH]c3ccccc13)C(=O)N[C@H](C(=O)O)Cc1ccc(cc1)C(=O)N[C@H]1C[C@@H](C(=O)N[C@@H](Cc3ccc4ccccc4c3)C(=O)N[C@H](C(=O)O)Cc3ccc(cc3)OC/C=C/CO2)N(C(=O)[C@@H](NC(=O)[C@H](C)NC)C(C)(C)C)C1 [Example 47]
19 | 16.1 | 4.8 | CC[C@H](NC(=O)[C@H](C)NC)C(=O)N1C[C@@H]2C[C@H]1C(=O)N[C@@H](Cc1ccc(-c3ccccc3)cc1)C(=O)N[C@H](C(=O)O)Cc1ccc(cc1)C(=O)N[C@H]1C[C@@H](C(=O)N[C@@H](Cc3ccc4ccccc4c3)C(=O)N[C@H](C(=O)O)Cc3ccc(cc3)OC/C=C/CO2)N(C(=O)[C@@H](NC(=O)[C@H](C)NC)C(C)(C)C)C1 [Example 49]
20 | 106 | 7.9 | CC[C@H](NC(=O)[C@H](C)NC)C(=O)N1C[C@@H]2C[C@H]1C(=O)N[C@@H](C)C(=O)N[C@H](C(=O)O)Cc1ccc(cc1)C(=O)N[C@H]1C[C@@H](C(=O)N[C@@H](Cc3ccc4ccccc4c3)C(=O)N[C@H](C(=O)O)Cc3ccc(cc3)OC/C=C/CO2)N(C(=O)[C@@H](NC(=O)[C@H](C)NC)C(C)(C)C)C1 [Example 45]
21 | 60.2 | 8 | CN[C@@H](C)C(=O)N[C@H](C(=O)N1C[C@@H]2C[C@H]1C(=O)N[C@@H](Cc1ccc3ccccc3c1)C(=O)N[C@H](C(=O)O)Cc1ccc(cc1)OC/C=C/CO[C@H]1C[C@@H](C(=O)N[C@@H](C(c3ccccc3)c3ccccc3)C(=O)N[C@H](C(=O)O)Cc3ccc(cc3)C(=O)N2)N(C(=O)[C@@H](NC(=O)[C@H](C)NC)C(C)(C)C)C1)C(C)(C)C [Example 62]
